Assay results published in publication PMC8155176, “Reversible modulation of circadian time with chronophotopharmacology” (Nature Communications, 2021).
“Also recorded” adds a separate entry of the source. Read-outs that look alike come from different tables or passages of the source.

Key:
[1] = molecular target: T1, CKIα (Homo sapiens, UniProt P48729); test: In vitro kinase assay (Kinase Glo), CKIα; format: biochemical; details: for light dependence of CKIα inhibition (in words): UV light 365 nm vs dark; for fold difference in CKIα inhibition between dark and UV-irradiated sample: trans vs cis-enriched (365 nm), 5 is stronger under light, the others weaker
T1 construct: purchased Invitrogen PV3850
T1 sequence (P48729 whole entry): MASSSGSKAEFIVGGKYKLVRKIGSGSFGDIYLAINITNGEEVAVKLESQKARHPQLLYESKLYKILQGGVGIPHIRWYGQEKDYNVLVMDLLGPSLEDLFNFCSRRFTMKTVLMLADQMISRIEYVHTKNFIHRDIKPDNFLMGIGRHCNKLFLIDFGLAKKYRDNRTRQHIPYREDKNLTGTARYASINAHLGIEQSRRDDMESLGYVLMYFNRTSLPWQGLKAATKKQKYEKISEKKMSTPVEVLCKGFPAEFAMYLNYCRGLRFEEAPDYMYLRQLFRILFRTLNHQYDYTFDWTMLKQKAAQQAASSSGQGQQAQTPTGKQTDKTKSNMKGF
Procedure: A stock solution of 7.4 mM in DMSO was prepared and thermally adapted by heating to c.a. 100 °C for 1 min. Two series of eight samples were prepared with consecutive three-time dilutions from the stock solution. One of the series (‘dark’ samples) was prepared in dark Eppendorf tube, the other series (‘light’ samples) was pre-irradiated with UV light (365 nm, UV lamp Spectroline, ENB-280/FE, 1 × 8 Watt) for 45 min. For compound 9, 1 mM solution in DMSO was thermally adapted by heating to 80 °C for 2 min and split into two vials. One vial was kept in the dark and the other was irradiated with green light (530 nm, 3x Nichia NCSG219B-V1, 3 × 550 mW, Sahlmann Photochemical Solutions) for 60 min. Both dark-kept and irradiated samples were subjected to 8-point 3-fold dilutions. All the solutions were applied to the well plate under a red lamp in the dark room in order to prevent ambient-light-induced photo-isomerization.
The assays were performed on a white, solid-bottom 384-well plates. The total volume for the reaction is 10.5 µl. Firstly, a solution of CKI and peptide was added to the bottom of the well (9 µL). Next, a corresponding solution of the compound (0.5 μL, final 5% DMSO) followed by 50 μM ATP solution (1 μL) were pipetted into the upper corners of each well. The enzymatic reaction was started by spinning down the plate (1800 x g, 2 min).
By employing this method, all reactions were started at the same time, minimizing variance between different samples. Incubation for 3 h at 30 °C or 2 h at 37 °C allowed for the enzymatic phosphorylation of the substrate peptide. As the reaction started, the wells with ‘light’ samples were irradiated with UV light or kept in dark in case of experiment with compound 9. ‘Dark’ (0 min pre-irradiation) wells were covered with an aluminum sticker from the beginning. After the incubation, 10 μL Kinase Glo® (Promega) was applied into the wells and the luminescent signal was recorded by a plate reader (BioTek Synergy H1 or Cytation).
The total volume for the reaction was 10.5 µl. The reaction mixture contained the following: for CKIδ, 4 ng/µl CKIδ (14-520, Eurofins), 50 µM peptide substrate RKKKAEpSVASLTSQCSYSS corresponding to human PER2 Lys659-Ser674, and CKI buffer (40 mM Tris, 10 mM MgCl2, 0.5 mM DTT, 0.1 mg/ml BSA, pH7.4); for CKIα, 1 ng/µl CKIα (PV3850, Invitrogen), 50 µM CKI peptide substrate (60547-1, Anaspec), and CKI buffer.
The data obtained from the in vitro kinase assay was analyzed using GraphPad software, in which the luminescence outcome is normalized. Normalization is done using a luminescent output of the control that contained high concentration of longdaysin (370 µM) as 100% inhibition and DMSO for 0% inhibition. In all graphs, a dose-response fit was used to obtain

[2] = Chemical stability under dark and irradiation conditions followed by LCMS; format: physicochemical; details: 40 µM in kinase assay buffer or cell culture medium, dark, 365 nm 3 h, 400 nm 30 min
Procedure: LCMS traces of stability studies
Supplementary Figure 8. Chemical stability of compound 3 under dark and irradiation conditions followed by LCMS. All the samples were prepared as 40 µM solution in buffer or cell culture medium. ‘Buffer’ and ‘medium’ samples were injected immediately upon dissolving compound 3, ‘buffer_3h_dark’ was injected after 3 h of keeping the solution in dark, ‘buffer_3h_365nm’ after irradiation of the sample for 3 h with UV light in kinase assay buffer, and ‘medium_30min_400nm’ after 30 min of irradiation with 400 nm in cell culture medium. The trans-isomer was followed at the retention time of 10.41-10.47 min and the cis-isomer at the retention time of 8.84-8.90 min. Mass spectra of both isomers in different […]
(1 picture or pasted object on this page, not shown here)

[3] = test system: U2OS cells; test: Circadian period assay in Bmal1-dLuc U2OS reporter cells; format: cell-based, human
Procedure: Next, we tested if the observed light-dependent CKIα inhibition translates into photomodulation of the circadian period in human U2OS cells (Fig. 2d). The Bmal1-dLuc reporter cell line contains the coding sequence of destabilized luciferase driven by the Bmal1 gene promoter sequence. The cell culture medium for luminescence recording includes a high concentration of luciferin (0.2 mM), a substrate for luciferase, which strongly absorbs UV light (Supplementary Fig. 30). […] As the circadian period change is directly correlated with the potency and concentration of the inhibitor[10], the cells were treated with photoswitchable modulators using a broad range of concentrations.
In comparison to the kinase assay, the direct use of UV light for preventing a thermal back-isomerization of the cis-isomer was not feasible due to the cell-damaging effect and the presence of luciferin in the medium. Therefore, the modulators were kept in the dark or photo-isomerized in DMSO prior to the addition, without further irradiation during the circadian assay. All three modulators lengthened the period in the U2OS cells both in the dark and upon irradiation (Fig. 2d). […] Altogether, based on the efficient generation of the cis-isomer under irradiation, retained potency and promising light-modulation of CKIα inhibition, the meta-substituted modulator 4 was identified as representing lead substitution pattern for further investigation.
Stable U2OS reporter cells harboring Bmal1-dLuc reporter were suspended in phenol red-free culture medium [DMEM (D2902, Sigma) supplemented with 10% fetal bovine serum, 3.5 mg/mL D-glucose, 3.7 mg/mL sodium bicarbonate, 0.29 mg/mL L-glutamine, 100 units/mL penicillin, and 100 µg/mL streptomycin] and plated onto a white, solid-bottom 384-well plates at 30 µL (3000 cells) per well. After 2 days, 40 µL of phenol red-free explant medium [DMEM (D2902, Sigma) supplemented with 2% B27 (Gibco), 10 mM HEPES, 3.5 mg/mL D-glucose, 0.38 mg/mL sodium bicarbonate, 0.29 mg/mL L-glutamine, 100 units/mL penicillin, 100 µg/mL streptomycin, and 0.2 mM luciferin; pH 7.2] was dispensed into each well, followed by the application of 0.5 μL of compounds (dissolved in DMSO; final 0.7% DMSO; pre-irradiated with UV for 60 min, white LED for 10 min, and/or green LED for 60 min when indicated). The plate was covered with an optically clear film, and subjected to irradiation with 530 nm LED lamp (3 × 550 mW, λmax = 530 nm, FWHM 36 nm, Sahlmann Photochemical Solutions) or 400 nm LED lamp (3 × 1000 mW, λmax = 400 nm, FWHM 11.9 nm, Sahlmann Photochemical Solutions) from 12 cm distance for 30 min. Compound handling and irradiation were conducted in a dark room under red lamp illumination. Luminescence was recorded every 100 min in a microplate reader, Infinite M200Pro (Tecan). For the phase control experiments, cellular light irradiation was performed in a dark 32 °C room and luminescence was recorded in a microplate reader Synergy H1 (BioTek) placed in the same room, to avoid possible effect of transient temperature change on the phase. Circadian period and phase were determined from luminescence rhythms by a curve fitting program MultiCycle (Actimetrics). Data from the first day was excluded from analysis, because of transient changes in luminescence upon medium change. Statistical significance was evaluated using two-way analysis of variance (ANOVA) followed by a Sidak’s multiple comparisons test or one-way ANOVA followed by a Tukey’s multiple comparisons test using Prism software (GraphPad Software).

[4] = Solubility test in kinase assay buffer and cell culture medium; format: physicochemical
Procedure: Solubility studies were performed in kinase assay buffer and cell culture medium. Half of the solutions of the compounds in DMSO was thermally adapted (‘Dark’) and the other half was irradiated for 1 h with UV light (λmax = 365 nm, ‘Light’) green light in case of 9 (λmax = 530 nm, ‘Light’). Solubility is indicated in the Supplementary Table 1. […]
precipitation were excluded from the dose-response curves in the enzymatic assay .
Supplementary Table 1. Solubility of the photos witchable compounds in the highest concentrations that were used in the enzymatic assay.
Kinase assay buffer Cell culture medium […]

[5] = irradiated with UV light (365 nm) before and during the assay, cis-enriched, read-out: CKIα IC50, light
[6] = thermally adapted trans-isomer kept in the dark, read-out: CKIα IC50, dark

| SMILES | IC50 [1, 5] [µM] | IC50 [1, 6] [µM] | fold difference in CKIα inhibition between dark and UV-irradiated sample [1] | light dependence of CKIα inhibition (in words) [1] | chemical stability (reduction or oxidation of the azo group) [2] | period lengthening in U2OS cells ([3]; 24 μM) [h] | light-modulation of period lengthening ([3]; 24 μM, UV pre-irradiated vs dark) | light-induced deactivation of period lengthening ([3]; 3 μM, UV pre-irradiated vs dark) | light-induced change of period lengthening ([3]; 72 μM, UV pre-irradiated vs dark) | solubility in aqueous media (in words) [4] | effect of UV light irradiation on period lengthening ([3]; UV (365 nm) pre-irradiated) | recovery of biological activity upon back-isomerization with white light ([3]; UV light followed by white light) | period lengthening effect under dark conditions ([3]; dark) | influence of green or violet light on the period change ([3]; control experiment) |
| --- | --- | --- | --- | --- | --- | --- | --- | --- | --- | --- | --- | --- | --- | --- |
| CC(C)n1cnc2c(NCc3ccc(/N=N/c4ccccc4)cc3)ncnc21 [Compound 3] | 4.5 | 3.6 | – | no obvious light-dependent changes of CKIα inhibition | Products of reduction or oxidation were not observed | 4 | no light-modulation | – | – | – | – | – | – | – |
| CC(C)n1cnc2c(NCc3cccc(/N=N/c4ccccc4)c3)ncnc21 [Compound 4] | 8.6 | 1.9 | 4.5 fold | substantial light-induced inactivation | Products of reduction or oxidation were not observed | – | – | ca. 2 h | – | – | – | – | – | – |
| CC(C)n1cnc2c(NCc3ccccc3/N=N/c3ccccc3)ncnc21 [Compound 5] | 54 | 96 | – | – | Products of reduction or oxidation were not observed | – | – | – | weak activation | solubility issues at high concentrations | – | – | – | – |
| COc1ccc(/N=N/c2cccc(CNc3ncnc4c3ncn4C(C)C)c2)cc1 [Compound 6] | 13.3 | 2.8 | 5 fold | – | Products of reduction or oxidation were not observed | – | – | – | – | increased solubility | – | – | – | – |

Now from value to compound, other results behind:

| IC50 [1, 5] [µM] | IC50 [1, 6] [µM] | fold difference in CKIα inhibition between dark and UV-irradiated sample [1] | SMILES | light dependence of CKIα inhibition (in words) [1] | chemical stability (reduction or oxidation of the azo group) [2] | period lengthening in U2OS cells ([3]; 24 μM) [h] | light-modulation of period lengthening ([3]; 24 μM, UV pre-irradiated vs dark) | light-induced deactivation of period lengthening ([3]; 3 μM, UV pre-irradiated vs dark) | light-induced change of period lengthening ([3]; 72 μM, UV pre-irradiated vs dark) | solubility in aqueous media (in words) [4] | effect of UV light irradiation on period lengthening ([3]; UV (365 nm) pre-irradiated) | recovery of biological activity upon back-isomerization with white light ([3]; UV light followed by white light) | period lengthening effect under dark conditions ([3]; dark) | influence of green or violet light on the period change ([3]; control experiment) |
| --- | --- | --- | --- | --- | --- | --- | --- | --- | --- | --- | --- | --- | --- | --- |
| 9.3 | 2.4 | four times less potent | CC(C)n1cnc2c(NCc3cccc(/N=N/c4c(F)cccc4F)c3)ncnc21 [Compound 7] | – | Products of reduction or oxidation were not observed; also recorded: both chemical and photochemical stability | – | – | – | – | – | suppressed by UV light irradiation; also recorded: most pronounced period lengthening deactivation | partial recovery | strong period lengthening effect | – |
| 4.3 | – | – | CC(C)n1cnc2c(NCc3cccc(C(F)(F)F)c3)ncnc21 [longdaysin, reference compound] | negligible effect of UV irradiation on the potency | – | – | – | – | – | – | – | – | – | negligible influence |
